Measurements published in ChEMBL document CHEMBL1201862, “PubChem BioAssay data set” (2004).
Active and inactive are the calls of the source.

How the values were obtained:
[1] = Vero cell cytotoxicity, cytotoxicity control for M. tuberculosis inhibitor project, purified and synthesized samples, set 3 (AID 504684); format: functional
[2] = target: T1, Corticotropin-releasing factor receptor 2/Corticotropin-releasing factor-binding protein (Homo sapiens, UniProt P24387+Q13324); assay: activators of CRF receptor 2 with binding protein – uHTS hits, confirmation (AID 602473); format: functional; conditions: read-out: EC50_Mean
T1 sequence (Q13324 whole entry): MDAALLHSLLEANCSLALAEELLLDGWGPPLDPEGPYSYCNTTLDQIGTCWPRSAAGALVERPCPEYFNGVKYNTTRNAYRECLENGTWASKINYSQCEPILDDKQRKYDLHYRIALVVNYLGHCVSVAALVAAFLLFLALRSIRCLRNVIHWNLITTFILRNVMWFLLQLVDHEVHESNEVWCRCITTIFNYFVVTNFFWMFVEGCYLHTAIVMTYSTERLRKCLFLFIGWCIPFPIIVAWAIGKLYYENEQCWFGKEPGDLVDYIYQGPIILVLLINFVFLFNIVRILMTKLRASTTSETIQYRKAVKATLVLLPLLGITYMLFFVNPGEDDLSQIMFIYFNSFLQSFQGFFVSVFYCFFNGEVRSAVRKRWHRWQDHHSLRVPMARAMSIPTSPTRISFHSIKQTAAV
T1 sequence (P24387 whole entry): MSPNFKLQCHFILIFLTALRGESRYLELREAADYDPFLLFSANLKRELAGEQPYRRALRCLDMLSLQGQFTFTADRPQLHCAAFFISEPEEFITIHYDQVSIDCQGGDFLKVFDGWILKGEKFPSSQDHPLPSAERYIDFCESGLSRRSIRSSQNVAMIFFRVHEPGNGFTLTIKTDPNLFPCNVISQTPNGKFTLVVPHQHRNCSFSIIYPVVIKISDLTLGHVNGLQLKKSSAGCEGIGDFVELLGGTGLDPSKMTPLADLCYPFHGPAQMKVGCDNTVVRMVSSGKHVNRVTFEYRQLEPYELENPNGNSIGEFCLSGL

[3] = THP-1 cell cytotoxicity, cytotoxicity control, set 4 (AID 504911); format: functional; conditions: Mycobacterium tuberculosis
[4] = Vero cell cytotoxicity, dose response, cytotoxicity control for M. tuberculosis growth inhibitor project, Vero cells, purified and synthesized compounds, set 4 (AID 504854); format: functional; conditions: Mycobacterium tuberculosis
[5] = HepG2 cell cytotoxicity, dose response, cytotoxicity control, set 3 (AID 504853); format: functional; conditions: Mycobacterium tuberculosis
[6] = Vero cell cytotoxicity, dose response, cytotoxicity control for M. tuberculosis growth inhibitor project, Vero cells, purified and synthesized compounds, set 5 (AID 504909); format: functional; conditions: Mycobacterium tuberculosis
[7] = HepG2 cell cytotoxicity, cytotoxicity control, set 4 (AID 504910); format: functional; conditions: Mycobacterium tuberculosis
[8] = A Cell Based Secondary Assay to Explore Cytotoxicity in THP-1 Cells of Compounds that Modulate Mycobacterium tuberculosis in Media Containing Glycerol versus Media without Glycerol (2).; format: functional
[9] = THP-1 cell cytotoxicity, dose response, cytotoxicity control, set 3 (AID 504852); format: functional; conditions: Mycobacterium tuberculosis
[10] = A Cell Based Secondary Assay to Explore Cytotoxicity in HepG2 Cells of Compounds that Modulate Mycobacterium tuberculosis in Media Containing Glycerol versus Media without Glycerol (2).; format: functional
[11] = CRF-BP/CRF-R2 complex antagonists, dose response, cell-based, uHTS hits, 384-well (AID 651639); format: functional, Homo sapiens; conditions: read-out: IC50_Mean
[12] = microbe, parasite or virus in culture; format: functional; conditions: Mycobacterium tuberculosis
[13] = target: T1, Corticotropin-releasing factor receptor 2/Corticotropin-releasing factor-binding protein; assay: Dose Response confirmation of uHTS hits for small molecule antagonists of the CRF-binding protein and CRF-R2 receptor complex.; format: functional; conditions: read-out: IC50_Mean
[14] = target: DNA dC->dU-editing enzyme APOBEC-3A (Homo sapiens, UniProt P31941); assay: SAR analysis of small molecule inhibitors of APOBEC3A DNA Deaminase via a fluorescence-based single-stranded DNA deaminase assay - Set 2.; format: functional; conditions: read-out: IC50_Mean
[15] = target: DNA dC->dU-editing enzyme APOBEC-3G (Homo sapiens, UniProt Q9HC16); assay: SAR analysis of small molecule inhibitors of APOBEC3G DNA Deaminase via a fluorescence-based single-stranded DNA deaminase assay - Set 2.; format: functional; conditions: read-out: IC50_Mean
[16] = target: Cyclin-dependent kinase 8 (Homo sapiens, UniProt P49336); assay: Navigating the Kinome. Panel member name: CDK8; format: functional
[17] = target: Dual specificity tyrosine-phosphorylation-regulated kinase 1B (Homo sapiens, UniProt Q9Y463); assay: Navigating the Kinome. Panel member name: DYRK1B; format: functional
[18] = target: Leukocyte tyrosine kinase receptor (Homo sapiens, UniProt P29376); assay: Navigating the Kinome. Panel member name: LTK; format: functional
Aurora kinase A = Aurora kinase A (Homo sapiens, UniProt O14965); format: functional;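 note: value from the Navigating the Kinome kinase panel profiling, panel entry STK6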
Activated CDC42 kinase 1 = Activated CDC42 kinase 1 (Homo sapiens, UniProt Q07912); assay: Navigating the Kinome. Panel member name: ACK1; format: functional
[19] = target: Mitogen-activated protein kinase kinase kinase kinase 4 (Homo sapiens, UniProt O95819); format: functional
[20] = target: Tyrosine-protein kinase JAK2 (Homo sapiens, UniProt O60674); format: functional;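 note: JAK2 tested as one member of a kinase panel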
[21] = target: Inhibitor of nuclear factor kappa-B kinase subunit epsilon (Homo sapiens, UniProt Q14164); assay: Navigating the Kinome. Panel member name: IKBKE; format: functional
[22] = target: Calcium/calmodulin-dependent protein kinase type II subunit alpha (Homo sapiens, UniProt Q9UQM7); assay: Navigating the Kinome. Panel member name: CAMK2A; format: functional
[23] = target: Cyclin-dependent kinase 9 (Homo sapiens, UniProt P50750); format: functional;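 note: value from the CDK9 entry of a kinome-spanning kinase panel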
[24] = target: 5'-AMP-activated protein kinase catalytic subunit alpha-1 (Homo sapiens, UniProt Q13131); format: functional
[25] = target: Glycogen synthase kinase-3 beta (Homo sapiens, UniProt P49841); format: functional;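 note: value comes from a broad kinome profiling panel, with GSK3B as the panel member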
[26] = target: Serine/threonine-protein kinase TBK1 (Homo sapiens, UniProt Q9UHD2); assay: Navigating the Kinome. Panel member name: TBK1; format: functional
[27] = target: Vascular endothelial growth factor receptor 2 (Homo sapiens, UniProt P35968); format: functional
[28] = target: Dual specificity protein kinase CLK4 (Homo sapiens, UniProt Q9HAZ1); format: functional
[29] = target: Tyrosine-protein kinase Fyn (Homo sapiens, UniProt P06241); format: functional
[30] = target: Macrophage colony-stimulating factor 1 receptor (Homo sapiens, UniProt P07333); format: functional;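 note: value comes from the Navigating the Kinome screening panel, CSF1R member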
[31] = target: Proto-oncogene tyrosine-protein kinase receptor Ret (Homo sapiens, UniProt P07949); format: functional;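 note: measured within a kinome-wide profiling panel, RET as the panel member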
[32] = target: Serine/threonine-protein kinase N2 (Homo sapiens, UniProt Q16513); format: functional
[33] = target: Mitogen-activated protein kinase kinase kinase kinase 5 (Homo sapiens, UniProt Q9Y4K4); format: functional;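 note: measured as one member of a kinome-spanning kinase panel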
[34] = target: Leucine-rich repeat serine/threonine-protein kinase 2 (Homo sapiens, UniProt Q5S007); format: functional;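 note: value from a broad kinome-wide panel profiling study in which LRRK2 was one of the kinases tested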
[35] = target: Vascular endothelial growth factor receptor 1 (Homo sapiens, UniProt P17948); format: functional;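 note: measured within a kinome-wide profiling panel, FLT1 as the panel member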
[36] = target: Mitogen-activated protein kinase 9 (Homo sapiens, UniProt P45984); format: functional;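 note: value from a kinome panel profiling assay, MAPK9 panel entry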
[37] = target: Insulin-like growth factor 1 receptor (Homo sapiens, UniProt P08069); assay: Navigating the Kinome. Panel member name: IGF1R; format: functional
[38] = target: cAMP-dependent protein kinase catalytic subunit alpha (Homo sapiens, UniProt P17612); format: functional
[39] = target: Cyclin-dependent kinase 5 (Homo sapiens, UniProt Q00535); format: functional;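 note: CDK5 measured as one member of a kinase profiling panel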
[40] = target: Mitogen-activated protein kinase kinase kinase kinase 2 (Homo sapiens, UniProt Q12851); format: functional;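 note: measured as one member of a kinome-wide kinase panel, with MAP4K2 as the panel entry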
[41] = target: Receptor-type tyrosine-protein kinase FLT3 (Homo sapiens, UniProt P36888); format: functional;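 note: FLT3 was tested as one member of a kinome-wide kinase panel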
[42] = target: Platelet-derived growth factor receptor alpha (Homo sapiens, UniProt P16234); assay: Navigating the Kinome. Panel member name: PDGFRA; format: functional
[43] = target: cAMP-dependent protein kinase catalytic subunit PRKX (Homo sapiens, UniProt P51817); format: functional
[44] = target: Serine/threonine-protein kinase TAO1 (Homo sapiens, UniProt Q7L7X3); format: functional
[45] = target: Macrophage-stimulating protein receptor (Homo sapiens, UniProt Q04912); assay: Navigating the Kinome. Panel member name: MST1R; format: functional
[46] = target: Serine/threonine-protein kinase D3 (Homo sapiens, UniProt O94806); format: functional;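 note: determined within a kinase panel screen, with PRKCN as the panel member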
[47] = target: Cyclin-dependent kinase 19 (Homo sapiens, UniProt Q9BWU1); assay: Navigating the Kinome. Panel member name: CDC2L6; format: functional
[48] = target: Fibroblast growth factor receptor 1 (Homo sapiens, UniProt P11362); format: functional
Activin receptor type-1 = Activin receptor type-1 (Homo sapiens, UniProt Q04771); assay: Navigating the Kinome. Panel member name: ACVR1; format: functional
[49] = target: Death-associated protein kinase 3 (Homo sapiens, UniProt O43293); format: functional;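 note: measured as one member of a kinome-wide profiling panel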
[50] = target: Serine/threonine-protein kinase pim-1 (Homo sapiens, UniProt P11309); format: functional
[51] = target: Dual specificity mitogen-activated protein kinase kinase 1 (Homo sapiens, UniProt Q02750); assay: Navigating the Kinome. Panel member name: MAP2K1; format: functional
[52] = target: Dual specificity tyrosine-phosphorylation-regulated kinase 1A (Homo sapiens, UniProt Q13627); format: functional;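 note: measured against DYRK1A as one member of a broad kinome profiling panel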
[53] = target: Tyrosine-protein kinase BTK (Homo sapiens, UniProt Q06187); format: functional
[54] = target: G protein-coupled receptor kinase 5 (Homo sapiens, UniProt P34947); assay: Navigating the Kinome. Panel member name: GPRK5; format: functional
[55] = target: Protein kinase C theta type (Homo sapiens, UniProt Q04759); assay: Navigating the Kinome. Panel member name: PRKCQ; format: functional
[56] = target: Mitogen-activated protein kinase 8 (Homo sapiens, UniProt P45983); format: functional;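 note: value comes from one member of a kinome-wide kinase profiling panel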
[57] = target: Mast/stem cell growth factor receptor Kit (Homo sapiens, UniProt P10721); format: functional;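 note: KIT entry within a kinase panel assay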
[58] = target: High affinity nerve growth factor receptor (Homo sapiens, UniProt P04629); format: functional;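 note: NTRK1 tested as one member of a kinome-wide profiling panel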
[59] = target: Dual specificity mitogen-activated protein kinase kinase 2 (Homo sapiens, UniProt P36507); assay: Navigating the Kinome. Panel member name: MAP2K2; format: functional
[60] = target: Glycogen synthase kinase-3 alpha (Homo sapiens, UniProt P49840); format: functional;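 note: GSK3A result taken from a broad kinome-wide kinase panel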
[61] = target: ALK tyrosine kinase receptor (Homo sapiens, UniProt Q9UM73); format: functional;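 note: ALK tested as one member of a kinase panel screen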
[62] = target: Tyrosine-protein kinase JAK3 (Homo sapiens, UniProt P52333); format: functional
[63] = target: Tyrosine-protein kinase Lck (Homo sapiens, UniProt P06239); format: functional;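 note: lck was assayed as one member of a kinase panel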
[64] = target: Tyrosine-protein kinase receptor TYRO3 (Homo sapiens, UniProt Q06418); format: functional;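 note: TYRO3 value obtained as one member of a kinome-wide profiling panel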
[65] = target: Mitogen-activated protein kinase 14 (Homo sapiens, UniProt Q16539); format: functional;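 note: part of a kinome-wide panel, MAPK14 entry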
[66] = target: Tyrosine-protein kinase ABL1 (Homo sapiens, UniProt P00519); format: functional
[67] = target: Dual specificity protein kinase CLK2 (Homo sapiens, UniProt P49760); format: functional
[68] = target: BDNF/NT-3 growth factors receptor (Homo sapiens, UniProt Q16620); format: functional;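 note: NTRK2 measured as one member of a broad kinome-wide kinase profiling panel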
Sequence of BDNF/NT-3 growth factors receptor (Q16620 whole entry): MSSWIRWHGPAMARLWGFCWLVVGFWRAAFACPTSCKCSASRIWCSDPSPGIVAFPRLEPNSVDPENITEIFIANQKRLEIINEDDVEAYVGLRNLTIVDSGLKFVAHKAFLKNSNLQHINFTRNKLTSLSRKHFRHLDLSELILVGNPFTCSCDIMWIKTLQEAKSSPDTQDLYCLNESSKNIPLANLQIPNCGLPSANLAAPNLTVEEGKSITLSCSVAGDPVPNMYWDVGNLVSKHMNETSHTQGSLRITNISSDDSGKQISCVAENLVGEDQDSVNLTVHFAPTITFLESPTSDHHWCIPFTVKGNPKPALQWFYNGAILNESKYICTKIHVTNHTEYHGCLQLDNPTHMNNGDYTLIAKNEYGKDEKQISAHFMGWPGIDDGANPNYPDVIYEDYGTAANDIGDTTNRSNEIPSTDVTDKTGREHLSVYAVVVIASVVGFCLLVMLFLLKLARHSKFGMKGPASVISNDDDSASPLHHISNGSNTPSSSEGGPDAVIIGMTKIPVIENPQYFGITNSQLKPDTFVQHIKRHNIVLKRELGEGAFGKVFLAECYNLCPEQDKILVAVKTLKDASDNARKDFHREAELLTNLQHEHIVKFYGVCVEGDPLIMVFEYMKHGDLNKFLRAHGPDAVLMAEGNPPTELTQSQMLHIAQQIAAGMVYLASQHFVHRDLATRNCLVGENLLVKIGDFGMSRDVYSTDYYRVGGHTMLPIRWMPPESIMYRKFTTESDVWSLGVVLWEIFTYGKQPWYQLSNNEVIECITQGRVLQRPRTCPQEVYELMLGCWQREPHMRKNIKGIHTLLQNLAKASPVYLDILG

Sequence of Macrophage-stimulating protein receptor (Q04912 25-304 limits assumed): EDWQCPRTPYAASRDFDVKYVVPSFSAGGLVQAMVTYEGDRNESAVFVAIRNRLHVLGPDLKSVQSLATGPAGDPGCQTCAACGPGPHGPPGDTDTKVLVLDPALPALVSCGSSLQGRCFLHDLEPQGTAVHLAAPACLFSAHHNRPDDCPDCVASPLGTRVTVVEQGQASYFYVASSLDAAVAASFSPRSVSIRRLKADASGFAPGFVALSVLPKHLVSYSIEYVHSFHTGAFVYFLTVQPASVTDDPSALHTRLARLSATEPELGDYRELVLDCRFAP
Sequence of Macrophage-stimulating protein receptor (Q04912 310-1400 limits assumed): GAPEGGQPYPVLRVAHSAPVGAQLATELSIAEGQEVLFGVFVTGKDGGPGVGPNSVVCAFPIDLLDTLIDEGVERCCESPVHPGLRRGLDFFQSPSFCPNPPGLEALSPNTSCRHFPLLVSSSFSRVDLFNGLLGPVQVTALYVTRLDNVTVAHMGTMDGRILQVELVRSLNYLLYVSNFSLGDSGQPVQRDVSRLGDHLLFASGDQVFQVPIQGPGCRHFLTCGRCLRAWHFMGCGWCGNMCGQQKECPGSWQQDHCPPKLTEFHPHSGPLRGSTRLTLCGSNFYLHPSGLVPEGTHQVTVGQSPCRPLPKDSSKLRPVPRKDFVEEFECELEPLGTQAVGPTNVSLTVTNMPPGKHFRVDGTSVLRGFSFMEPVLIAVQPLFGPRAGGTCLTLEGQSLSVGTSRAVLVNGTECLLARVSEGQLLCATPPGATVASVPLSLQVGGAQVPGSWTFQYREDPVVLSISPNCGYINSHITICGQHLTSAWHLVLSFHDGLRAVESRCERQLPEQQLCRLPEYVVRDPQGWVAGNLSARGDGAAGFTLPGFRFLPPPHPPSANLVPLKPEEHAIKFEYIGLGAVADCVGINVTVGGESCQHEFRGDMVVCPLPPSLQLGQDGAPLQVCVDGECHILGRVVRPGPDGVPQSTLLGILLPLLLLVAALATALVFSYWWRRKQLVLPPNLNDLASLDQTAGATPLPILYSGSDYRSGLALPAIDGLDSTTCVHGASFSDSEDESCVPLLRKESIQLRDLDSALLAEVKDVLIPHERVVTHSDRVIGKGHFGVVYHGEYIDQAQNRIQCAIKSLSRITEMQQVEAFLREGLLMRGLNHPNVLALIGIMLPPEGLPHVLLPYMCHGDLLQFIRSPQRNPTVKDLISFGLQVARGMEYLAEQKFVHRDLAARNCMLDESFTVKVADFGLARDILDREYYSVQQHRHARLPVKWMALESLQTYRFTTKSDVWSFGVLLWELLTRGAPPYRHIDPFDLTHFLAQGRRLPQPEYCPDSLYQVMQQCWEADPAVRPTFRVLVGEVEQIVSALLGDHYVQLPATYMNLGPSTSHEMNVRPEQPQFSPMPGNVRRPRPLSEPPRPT
Sequence of Dual specificity protein kinase CLK2 (P49760 whole entry): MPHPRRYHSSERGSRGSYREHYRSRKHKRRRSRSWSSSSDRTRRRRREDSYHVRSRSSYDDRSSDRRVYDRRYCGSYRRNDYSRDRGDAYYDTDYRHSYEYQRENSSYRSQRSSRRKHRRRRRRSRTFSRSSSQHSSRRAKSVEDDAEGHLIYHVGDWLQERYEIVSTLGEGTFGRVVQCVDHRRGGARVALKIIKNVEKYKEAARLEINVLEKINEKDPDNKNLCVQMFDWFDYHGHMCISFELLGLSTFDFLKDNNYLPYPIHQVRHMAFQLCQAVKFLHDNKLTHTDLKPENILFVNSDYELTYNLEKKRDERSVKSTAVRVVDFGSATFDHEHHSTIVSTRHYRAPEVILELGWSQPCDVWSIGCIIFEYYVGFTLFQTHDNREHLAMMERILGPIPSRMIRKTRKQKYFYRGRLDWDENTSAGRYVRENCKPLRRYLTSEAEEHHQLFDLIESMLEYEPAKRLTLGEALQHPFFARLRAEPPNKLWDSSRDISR
Sequence of Serine/threonine-protein kinase D3 (O94806 whole entry): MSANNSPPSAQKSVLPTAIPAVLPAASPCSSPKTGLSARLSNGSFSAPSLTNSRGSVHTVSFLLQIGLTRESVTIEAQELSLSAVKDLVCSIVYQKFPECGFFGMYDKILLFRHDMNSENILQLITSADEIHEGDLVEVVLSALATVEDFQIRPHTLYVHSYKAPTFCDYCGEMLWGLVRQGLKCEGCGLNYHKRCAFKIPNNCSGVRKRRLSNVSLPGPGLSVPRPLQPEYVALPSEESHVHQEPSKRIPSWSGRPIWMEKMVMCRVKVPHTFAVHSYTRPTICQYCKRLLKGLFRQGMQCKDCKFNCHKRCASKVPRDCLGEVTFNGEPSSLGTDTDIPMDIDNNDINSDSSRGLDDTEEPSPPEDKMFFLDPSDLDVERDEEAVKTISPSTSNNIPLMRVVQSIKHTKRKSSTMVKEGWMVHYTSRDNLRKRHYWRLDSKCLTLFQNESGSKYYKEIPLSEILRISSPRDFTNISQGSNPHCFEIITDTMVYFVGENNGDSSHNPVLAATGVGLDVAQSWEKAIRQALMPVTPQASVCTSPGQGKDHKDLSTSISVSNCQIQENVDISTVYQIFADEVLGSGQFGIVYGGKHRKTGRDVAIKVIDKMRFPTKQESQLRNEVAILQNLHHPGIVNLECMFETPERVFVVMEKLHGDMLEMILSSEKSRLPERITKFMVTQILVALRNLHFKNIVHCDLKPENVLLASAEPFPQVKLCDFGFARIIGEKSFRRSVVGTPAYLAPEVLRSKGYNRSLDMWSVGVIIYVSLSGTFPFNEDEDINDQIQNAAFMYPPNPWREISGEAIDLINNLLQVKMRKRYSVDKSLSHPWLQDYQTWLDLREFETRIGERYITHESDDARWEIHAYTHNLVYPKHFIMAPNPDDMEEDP
Sequence of DNA dC->dU-editing enzyme APOBEC-3G (Q9HC16 whole entry): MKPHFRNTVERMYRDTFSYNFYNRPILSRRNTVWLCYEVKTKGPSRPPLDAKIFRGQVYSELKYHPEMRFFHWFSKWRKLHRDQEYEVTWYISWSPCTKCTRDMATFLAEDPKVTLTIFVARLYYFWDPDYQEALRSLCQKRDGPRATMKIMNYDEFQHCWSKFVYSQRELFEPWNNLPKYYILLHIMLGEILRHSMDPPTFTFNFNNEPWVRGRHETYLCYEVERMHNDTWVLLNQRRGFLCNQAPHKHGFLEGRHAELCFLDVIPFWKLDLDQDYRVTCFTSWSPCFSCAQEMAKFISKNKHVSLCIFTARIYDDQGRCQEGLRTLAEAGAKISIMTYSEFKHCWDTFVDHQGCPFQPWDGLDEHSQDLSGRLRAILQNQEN
Sequence of Serine/threonine-protein kinase TAO1 (Q7L7X3 whole entry): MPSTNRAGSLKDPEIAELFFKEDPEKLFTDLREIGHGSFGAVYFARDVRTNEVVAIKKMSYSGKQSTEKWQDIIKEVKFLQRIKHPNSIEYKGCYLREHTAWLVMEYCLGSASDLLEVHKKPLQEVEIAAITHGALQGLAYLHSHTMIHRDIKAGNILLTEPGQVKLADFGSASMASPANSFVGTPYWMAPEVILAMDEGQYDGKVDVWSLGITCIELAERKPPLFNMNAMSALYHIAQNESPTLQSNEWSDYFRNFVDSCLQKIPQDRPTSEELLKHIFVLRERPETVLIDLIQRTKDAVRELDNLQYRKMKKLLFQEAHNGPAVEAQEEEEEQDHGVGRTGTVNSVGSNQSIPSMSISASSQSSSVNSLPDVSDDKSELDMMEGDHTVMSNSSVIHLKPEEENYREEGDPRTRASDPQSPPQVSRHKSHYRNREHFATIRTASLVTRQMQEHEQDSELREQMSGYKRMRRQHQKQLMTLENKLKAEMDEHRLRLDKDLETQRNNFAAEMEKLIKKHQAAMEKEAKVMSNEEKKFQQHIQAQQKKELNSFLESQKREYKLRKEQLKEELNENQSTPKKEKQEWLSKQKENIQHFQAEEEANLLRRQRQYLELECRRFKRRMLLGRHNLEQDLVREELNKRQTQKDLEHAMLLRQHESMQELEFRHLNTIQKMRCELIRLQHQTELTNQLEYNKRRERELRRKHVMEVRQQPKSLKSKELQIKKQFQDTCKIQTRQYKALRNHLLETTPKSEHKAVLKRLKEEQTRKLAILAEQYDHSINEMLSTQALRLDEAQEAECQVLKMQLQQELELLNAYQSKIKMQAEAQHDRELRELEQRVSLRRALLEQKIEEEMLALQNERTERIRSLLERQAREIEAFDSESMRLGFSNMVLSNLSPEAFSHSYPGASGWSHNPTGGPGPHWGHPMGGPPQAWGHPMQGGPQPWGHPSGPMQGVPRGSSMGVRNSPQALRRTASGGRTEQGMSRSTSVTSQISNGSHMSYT

Cc1ccc(C(=O)N/N=C(/CC(=O)c2cccs2)C(F)(F)F)cc1
active: CC50 [1] 61.7 µM | CC50 [3] 46.3 µM | CC50 [4] 55 µM | CC50 [5] > 50 µM | CC50 [6] 34.4 µM | CC50 [7] 38.8 µM | CC50 [8] 89.8 µM | CC50 [9] 51.4 µM | CC50 [10] 35 µM | IC50 [11] 16 µM | CC50 [12] 28.2 µM | IC50 [13] 4.48 µM
inactive: EC50 [2] > 53 µM

O=C(NCc1ccccc1)c1cc2ncc(Br)cn2n1
inactive: IC50 [14] > 99 µM | IC50 [15] > 99 µM

COc1cc2ncc3c(N)nc4c(C)c(N)ccc4c3c2cc1OC
inactive: Ki [16] > 3.98 µM | Ki [17] > 2.51 µM | Ki [18] > 2.51 µM | Ki (Aurora kinase A) > 1.58 µM | Ki (Activated CDC42 kinase 1) > 3.98 µM | Ki [19] > 5.01 µM | Ki [20] > 2.51 µM | Ki [21] > 3.16 µM | Ki [22] > 7.94 µM | Ki [23] > 1.58 µM | Ki [24] > 3.16 µM | Ki [25] > 3.98 µM | Ki [26] > 3.16 µM | Ki [27] > 2.51 µM | Ki [28] > 2.51 µM | Ki [29] > 6.31 µM | Ki [30] > 2.51 µM | Ki [31] > 3.16 µM | Ki [32] > 5.01 µM | Ki [33] > 3.98 µM | Ki [36] > 3.98 µM | Ki [37] > 2.51 µM | Ki [38] > 1.26 µM | Ki [39] > 3.16 µM | Ki [40] > 2.51 µM | Ki [41] > 3.16 µM | Ki [42] > 2.51 µM | Ki [43] > 3.16 µM | Ki [44] > 6.31 µM | Ki [45] > 3.98 µM | Ki [47] > 100 µM | Ki [48] > 3.98 µM | Ki (Activin receptor type-1) > 3.98 µM | Ki [50] > 6.31 µM | Ki [51] > 3.16 µM | Ki [52] > 2 µM | Ki [53] > 6.31 µM | Ki [54] > 3.98 µM | Ki [55] > 2.51 µM | Ki [56] > 5.01 µM | Ki [57] > 3.98 µM | Ki [58] > 3.16 µM | Ki [59] > 3.98 µM | Ki [60] > 3.98 µM | Ki [61] > 6.31 µM | Ki [62] > 5.01 µM | Ki [63] > 6.31 µM | Ki [64] > 3.16 µM | Ki [65] > 3.98 µM | Ki [66] > 3.98 µM | Ki [67] > 3.98 µM | Ki [68] > 3.98 µM
active: Ki [34] 0.0631 µM | Ki [35] 3.16 µM | Ki [46] 0.158 µM | Ki [49] 3.98 µM
